From publication PMC5633740, “Identification of YfiH and the Catalase CatA As Polyphenol Oxidases of Aeromonas media and CatA as a Regulator of Pigmentation by Its Peroxyl Radical Scavenging Capacity” (Frontiers in Microbiology, 2017)

Target: T1, CatA (PPO2; catalase; His6-tagged CatA) (Aeromonas media, UniProt A0AAE7AJ24)
T1 construct: gene E4188_09760; full ORF (1,449 bp) in pET-26b(+) NdeI/XhoI, His6-tagged, expressed in E. coli BL21(DE3), Ni-NTA; 55 kDa peak by gel filtration
Test: native-PAGE activity staining of purified protein
Format: biochemical
Details: 5 mM L-DOPA, 50 mM Tris-HCl pH 8.0, 30 °C, 30 min; qualitative

T1 sequence (A0AAE7AJ24 entry or part of it): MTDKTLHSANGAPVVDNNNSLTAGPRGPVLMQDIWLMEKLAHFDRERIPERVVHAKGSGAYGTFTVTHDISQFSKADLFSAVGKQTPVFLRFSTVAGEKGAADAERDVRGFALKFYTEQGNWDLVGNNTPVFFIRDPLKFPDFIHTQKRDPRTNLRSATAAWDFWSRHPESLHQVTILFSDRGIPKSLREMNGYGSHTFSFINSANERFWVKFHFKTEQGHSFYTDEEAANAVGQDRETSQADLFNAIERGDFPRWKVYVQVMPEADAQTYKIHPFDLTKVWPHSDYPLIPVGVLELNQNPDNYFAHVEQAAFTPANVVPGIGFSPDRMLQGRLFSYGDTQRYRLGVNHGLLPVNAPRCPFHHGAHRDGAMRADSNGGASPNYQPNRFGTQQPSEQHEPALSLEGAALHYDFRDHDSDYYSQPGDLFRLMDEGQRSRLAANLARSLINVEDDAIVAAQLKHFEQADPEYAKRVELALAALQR

`N[C@@H](Cc1ccc(O)c(O)c1)C(=O)O` [L-DOPA, L-3,4-dihydroxyphenylalanine] was tested, and the “native-PAGE activity staining of purified protein” value was “All His6-tagged proteins exhibited both catalase and PPO activity”.
